Experimental data published in US11376216B2, “Periodontal disease therapy” (New York University, priority 2018, dated 2022).

Key:
pre-osteoclastic cells = test: Viability/proliferation of osteoclast progenitors (cytotoxicity of 4C); format: cell-based, mouse; settings: at up to 100 μM; without RANKL and M-CSF
Method: (§1) (A) “4C” structure with NMR in dimethyl sulfoxide (DMSO). (B) Purity by high-performance liquid chromatography (HPLC). Ficoll processed non-adherent bone marrow cells were seeded at 20,000 per well in 96-well-plate and stimulated with the indicated concentration of cytokines (macrophage-colony stimulating factor (M-CSF), 30 ng ml^−1 from day 1; receptor activator of nuclear factor kappa-B ligand (RANKL), 50 ng ml^−1 from day 3); fresh cytokines were added every other day. (C) No cytotoxicity of 4C to the proliferation of osteoclast (OC) progenitors (without RANKL and M-CSF). (D-E) Representative TRAP staining images and analysis of WT mouse bone marrow in vitro OC cultures treated with 1 mM succinate or control in the presence of SucnR1 antagonist 4C at indicated concentrations. **p<0.01, *** p<0.001 according to Bonferroni post hoc test after ANOVA, N=5.
(§2) The structure of the synthetic antagonist of SucnR1 4C was authenticated using nuclear magnetic resonance spectroscopy (FIG. 2A) with a purity of 98.002% according to high-performance liquid chromatography (FIG. 2B).

[1] = system: osteoclast culture derived from ficoll processed mouse bone marrow cells; test: Succinate-stimulated osteoclastogenesis in bone marrow osteoclast cultures (TRAP staining); format: cell-based; settings: 1 mM succinate, in vitro
Method: as §1, §2

[2] = biological target: T1, Human Succinate Receptor 1 (Homo sapiens, UniProt Q9BXA5); test: Human Succinate Receptor 1 AequoScreen cell line calcium signal upon succinate activation; format: cell-based; settings: succinate 500 μM, read-out: inhibition of SucnR1 activation by succinate
T1 sequence (Q9BXA5 1-334): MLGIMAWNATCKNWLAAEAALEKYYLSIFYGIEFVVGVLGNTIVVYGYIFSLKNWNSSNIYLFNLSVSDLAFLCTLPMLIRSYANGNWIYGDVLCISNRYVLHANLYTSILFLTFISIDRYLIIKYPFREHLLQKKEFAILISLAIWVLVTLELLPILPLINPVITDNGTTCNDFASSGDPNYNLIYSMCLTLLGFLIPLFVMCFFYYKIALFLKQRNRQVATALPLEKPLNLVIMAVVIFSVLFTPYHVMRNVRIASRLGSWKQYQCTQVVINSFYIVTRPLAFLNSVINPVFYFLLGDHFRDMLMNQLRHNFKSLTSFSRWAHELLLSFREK
Method: Human Succinate Receptor 1 AequoScreen® Cell Line (PerkinElmer ES-744-A) was used to assess the activity of SUCNR1 upon activation by ligand (succinate 500 μM) in the presence and absence of antagonists. Cells were seeded at 5,000 cells/well for 24 hour before the calcium dye was added. Forty-five minutes later, the antagonists were added at indicated concentrations. Fifteen minutes later, the ligand was added and the fluorescent signal (EX/EM: 485/525) was measured immediately on a plate reader. A) The efficacy of 3 newly synthesized compounds in comparison with 4C at the same concentration. (*p<0.05, **p<0.001 by t-test in comparison to ligand alone post One-Way ANOVA) B) Dose effects of the compound 7a at various concentrations. (*p<0.05, **p<0.001 in comparison to […] by t-test post One-Way ANOVA).
Structure-activity relationship studies were performed using the compounds depicted in FIG. 7. The structure and purity of the compounds were confirmed via HPLC and NMR. At the same concentration of 4C, these antagonists inhibited the activation of SucnR1 by succinate in vitro (FIG. 8A).

C[C@H](NC(=O)Cc1ccc(-c2ccc3cccnc3n2)cc1)c1ccc(-c2ccc(F)c(C(F)(F)F)c2)cc1 [4C]
inhibitory effect on the viability of pre-osteoclastic cells (pre-osteoclastic cells): no inhibitory effect | reduction of succinate stimulation of osteoclastogenesis ([1]; 4C at 0.1 μM): started to reduce the stimulation of succinate | reduction of succinate stimulation of osteoclastogenesis ([1]; 4C at 10 μM): completely erase the simulation of osteoclastogenesis by succinate

CNC(=O)Cc1ccc(-c2ccc3cccnc3n2)cc1 [Cpd-7a]
inhibition at 20 µM [2]: 50%
